What was measured:
interferon-α = experiment: Interferon-α induction in human cells, PBM; type: cell-based; details: 24 hours
interferon = experiment: Interferon induction in mice; type: in vivo; details: mouse serum
How it was run: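 Mouse serum collected at 1, 2 and 4 h (separate groups), pooled, stored at −70° C, then assayed as for human-cell interferon. Values in α/β reference units/mL against a mouse MU-1-IF standard; "<" marks levels below assay sensitivity.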

[1] = system: vesicular stomatitis virus (VSV); experiment: microbe, parasite or virus in culture; type: cell-based; details: Vesicular stomatitis virus, read-out: VSV Yield Inhibition
MC-26 colon tumor cells = experiment: Inhibition of MC-26 tumors in mice, 21 day lung colony count; details: lung colonies day 21, 1×10^4 MC-26 cells i.v., control 55 ± 11
Procedure: On day 0 female CDF1 mice are inoculated i.v. with 1×10^4 MC-26 colon tumor cells in a volume of 0.2 mL of saline per mouse. The mice are sacrificed 21 days later. The lungs are removed and fixed with WARF then allowed to stand for 30 minutes. The lobes are separated and the colonies are counted. Ten mice are in each treatment group and in the control group.
The mice in the control group were dosed orally with water (10 mL/Kg) on days 0, 1, 2, 3 and 4.

Row | SMILES | Interferon-α induction (interferon-α; dose concentration 0.10 μg/mL) | Interferon-α induction (interferon-α; dose concentration 0.50 μg/mL) | Interferon-α induction (interferon-α; dose concentration 1.0 μg/mL) | Interferon-α induction (interferon-α; dose concentration 5.0 μg/mL) | Interferon induction in mice (interferon; oral 0.3 mg/kg, 1 hr) [Reference Units/mL] | Interferon induction in mice (interferon; oral 0.3 mg/kg, 2 hr) [Reference Units/mL] | Interferon induction in mice (interferon; oral 0.3 mg/kg, 4 hr) [Reference Units/mL] | Interferon induction in mice (interferon; oral 1 mg/kg, 1 hr) [Reference Units/mL] | Interferon induction in mice (interferon; oral 1 mg/kg, 2 hr) [Reference Units/mL] | Interferon induction in mice (interferon; oral 1 mg/kg, 4 hr) [Reference Units/mL] | Interferon induction in mice (interferon; oral 3 mg/kg, 1 hr) [Reference Units/mL] | Interferon induction in mice (interferon; oral 3 mg/kg, 2 hr) [Reference Units/mL] | Interferon induction in mice (interferon; oral 3 mg/kg, 4 hr) | Interferon induction in mice (interferon; oral 10 mg/kg, 1 hr) [Reference Units/mL] | Interferon induction in mice (interferon; oral 10 mg/kg, 2 hr) [Reference Units/mL] | Interferon induction in mice (interferon; oral 10 mg/kg, 4 hr) | further results
1 | CC(C)Cn1c(C(O)c2ccccc2)nc2c(N)nc3ccccc3c21 (stereo not drawn) [Example 48, 4-Amino-1-(2-methylpropyl)-α-phenyl-1H-imidazo[4,5-c]quinoline-2-methanol] | 3100 α Reference Units/mL | 840 α Reference Units/mL | 330 α Reference Units/mL | 1300 α Reference Units/mL | <260 | <260 | <260 | 790 | 940 | <260 | 1600 | 1600 | ˜510 Reference Units/mL | 2000 | 2000 | ˜540 Reference Units/mL | melting point: 125 to 140 °C
2 | CCOCc1nc2c(N)nc3ccccc3c2n1CC(C)(C)O [Example 99, 4-Amino-α,α-dimethyl-2-ethoxymethyl-1H-imidazo[4,5-c]quinoline-1-ethanol] | 280 α Reference Units/mL | 790 α Reference Units/mL | 790 α Reference Units/mL | 630 α Reference Units/mL | 1600 | 3500 | 390 | 2200 | 5100 | 460 | 1600 | 750 | ˜220 Reference Units/mL | 2500 | 4600 | ˜220 Reference Units/mL | Interferon-α induction (interferon-α; dose concentration 0.01 μg/mL): 28 α Reference Units/mL; Interferon-α induction (interferon-α; dose concentration 0.05 μg/mL): 316 α Reference Units/mL; log reduction at 0.1 µg/mL [1]: 5; log reduction at 0.5 µg/mL [1]: 5; log reduction at 1 µg/mL [1]: 5; Number of Colonies (MC-26 colon tumor cells; oral 1 mg/Kg on days 0-4): 29 ± 4; Number of Colonies (MC-26 colon tumor cells; oral 3 mg/Kg on days 0-4): 17 ± 3

Source: patent publication US6465654B2, “Process for preparing 1-substituted, 2-substituted 1H-imidazo[4, 5-c]quinoline-4-amines” (3M Innovative Properties Company, priority 1991, dated 2002)
